Assay results: PubChem BioAssay AID504557 (Johns Hopkins Ion Channel Center, 2011)
Active and inactive are the calls of the source.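 How the source made its calls: active means blocks current through the Kir2.1 potassium channel at one or more tested doses and yields a dose response curve; inactive means no block at any dose, or no dose response.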

Molecular target: Inward rectifier potassium channel 2 (Mus musculus) (UniProt P35561)
Assay: Kir2.1 thallium flux blockade potency – cell-based, FluxOR, SAR follow-up (AID 504557)
Conditions: Kir2.1 stable cells, FluxOR thallium flux fluorescence; for activity change, negative = inhibition: at 71 µM (top of the series)

Chain of Inward rectifier potassium channel 2 (Mus musculus) (P35561 whole entry, looked up): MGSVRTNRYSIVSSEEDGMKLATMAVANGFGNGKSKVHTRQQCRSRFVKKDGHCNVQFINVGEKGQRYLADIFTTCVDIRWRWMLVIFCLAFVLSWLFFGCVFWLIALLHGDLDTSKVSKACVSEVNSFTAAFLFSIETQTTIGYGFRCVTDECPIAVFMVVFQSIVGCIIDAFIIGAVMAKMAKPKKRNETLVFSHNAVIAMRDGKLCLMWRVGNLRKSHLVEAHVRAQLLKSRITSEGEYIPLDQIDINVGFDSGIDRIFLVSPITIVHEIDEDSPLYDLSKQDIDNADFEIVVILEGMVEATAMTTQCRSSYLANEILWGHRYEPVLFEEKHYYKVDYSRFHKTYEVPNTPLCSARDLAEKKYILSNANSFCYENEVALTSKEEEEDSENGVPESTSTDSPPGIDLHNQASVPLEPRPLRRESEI

SMILES	IC50 [µM]	activity change, negative = inhibition
Cc1ccc(C)c(OCCCNCc2ccccc2)c1	1.38	
C[C@@H](NS(=O)(=O)c1ccc(Br)cc1)c1ccccc1	25.3	
c1ccc(CNc2c3ccccc3nc3ccccc23)cc1	13.3	
C[C@H](NS(=O)(=O)c1ccc(Cl)cc1)c1ccccc1	11.7	
Cc1ccc2nc(N3CCN(CCO)CC3)nc(-c3ccccc3)c2c1	13.9	
CC(NS(=O)(=O)c1ccc(Br)cc1)c1ccccc1 (configuration not stated)	6.93	
C[C@H](NS(=O)(=O)c1cccc(Br)c1)c1ccccc1	11	
C[C@@H](NS(=O)(=O)c1ccc(Cl)cc1)c1ccccc1	13.4	
c1ccc(COc2ccc(OCCCNC3CCCC3)cc2)cc1	11.8	
Cc1ccc(Nc2cc(C)nc3c(C)cccc23)cc1	7.57	
Cc1noc(C)c1COC(=O)CCN1c2ccccc2Sc2ccccc21	7.6	
O=S(=O)(c1ccc(F)cc1)N1CCCc2ccccc21		inactive
O=C(NCC1CCCCN1)c1cc(OCC(F)(F)F)ccc1OCC(F)(F)F (configuration not stated)		inactive
CC(O)CNCCCOc1cccc(Oc2ccccc2)c1 (configuration not stated)	0.679	
Cc1ccc2nc(NCc3ccccc3)[nH]c2c1	13.6	

Next, values leading:

IC50 [µM]	activity change, negative = inhibition	SMILES
13		C[C@@H](NS(=O)(=O)c1ccccc1Br)c1ccccc1
4.9		C[C@H](NS(=O)(=O)c1ccccc1)c1ccccc1
	inactive	C[C@@H](NS(=O)(=O)c1cc(Cl)cc(Cl)c1O)c1ccccc1
	inactive	C[C@@H](NS(C)(=O)=O)c1ccccc1
9.46		Cc1ccc(S(=O)(=O)N[C@H](C)c2ccccc2)cc1
7.14		C[C@H](NS(=O)(=O)c1ccc(Br)cc1)c1ccccc1
34.1		C[C@H](NS(=O)(=O)c1cc(Cl)cc(Cl)c1O)c1ccccc1
	inactive	C[C@@H](NS(=O)(=O)c1ccccc1)c1ccccc1
4.74		C[C@H](NS(C)(=O)=O)c1ccccc1
15.2		Cc1ccc(S(=O)(=O)N[C@@H](C)c2ccccc2)cc1
7.59		C[C@@H](NS(=O)(=O)c1cccc(Br)c1)c1ccccc1
12.9		C[C@H](NS(=O)(=O)c1ccccc1Br)c1ccccc1
